The record followed here is US20220184008A1, “MODULATORS OF INTRACELLULAR CHLORIDE CONCENTRATION” (FONDAZIONE ISTITUTO ITALIANO DI TECNOLOGIA, priority 2019, published 2022).

In assay [1] the test system is NKCC1. As to the kind of experiment: Calcium kinetic assay in primary cultures of immature hippocampal neurons. It is filed as cell-based. The conditions noted are these: for NKCC1 Inhibition % 10 μM Neurons Calcium kinetic assay: immature neurons 3 DIV.
For assay [2], the target named is T1, NKCC2 (Homo sapiens, UniProt Q13621).
T1 construct: expressed in transfected cells; host or cells: HEK293
T1 sequence (Q13621 1-1099): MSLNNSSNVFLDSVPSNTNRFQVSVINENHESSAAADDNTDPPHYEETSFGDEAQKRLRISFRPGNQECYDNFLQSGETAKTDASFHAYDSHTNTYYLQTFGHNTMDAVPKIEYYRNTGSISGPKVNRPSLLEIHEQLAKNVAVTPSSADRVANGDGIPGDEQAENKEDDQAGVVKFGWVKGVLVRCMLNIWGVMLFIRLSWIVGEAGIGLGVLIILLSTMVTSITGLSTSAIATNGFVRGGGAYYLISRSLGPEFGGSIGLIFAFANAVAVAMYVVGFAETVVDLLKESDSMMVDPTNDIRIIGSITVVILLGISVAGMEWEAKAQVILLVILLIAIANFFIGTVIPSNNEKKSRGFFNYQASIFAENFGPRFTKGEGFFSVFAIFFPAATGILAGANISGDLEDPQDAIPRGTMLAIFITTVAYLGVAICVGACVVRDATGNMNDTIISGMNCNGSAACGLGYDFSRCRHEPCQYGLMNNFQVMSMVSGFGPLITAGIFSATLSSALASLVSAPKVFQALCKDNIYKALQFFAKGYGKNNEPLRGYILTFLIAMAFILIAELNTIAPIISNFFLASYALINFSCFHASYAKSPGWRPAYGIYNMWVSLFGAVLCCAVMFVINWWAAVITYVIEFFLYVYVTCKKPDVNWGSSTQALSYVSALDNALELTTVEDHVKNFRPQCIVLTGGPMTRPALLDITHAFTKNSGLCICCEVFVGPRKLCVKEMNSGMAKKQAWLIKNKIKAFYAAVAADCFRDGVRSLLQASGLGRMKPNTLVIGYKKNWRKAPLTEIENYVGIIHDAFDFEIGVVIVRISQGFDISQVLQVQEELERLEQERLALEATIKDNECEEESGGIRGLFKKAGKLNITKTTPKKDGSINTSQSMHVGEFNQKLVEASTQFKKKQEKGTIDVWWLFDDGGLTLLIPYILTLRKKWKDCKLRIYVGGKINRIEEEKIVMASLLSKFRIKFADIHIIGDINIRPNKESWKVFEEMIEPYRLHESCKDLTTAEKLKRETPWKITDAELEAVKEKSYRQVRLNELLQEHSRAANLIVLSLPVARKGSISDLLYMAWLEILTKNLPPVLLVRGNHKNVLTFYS
Kind of assay: Thallium-based assay in NKCC2-transfected HEK293 cells. It is filed as cell-based. An excerpt: The Thallium-based assay is a standard assay used to measure activity of potassium transporters, like NKCC2 which is a sodium potassium and chloride co-transporter. The assay consists on the monitoring of the cells upon the application of thallium (which mimic K^+) and consequently NaCl, which entering into cells by NKCC2, activated by the presence of the chloride ions, binds the fluorescent dye, thus determining a fluorescence increase. This assay involves parallel testing in 96 wells for a quick and easy drug screening. In detail, kidney epithelial cells (HEK293) were transfected with NKCC2 transporters, or a mock construct (control). After two days, the cells were loaded with a thallium-sensitive fluorescent dye in a Cl-free medium. After 1 hour of incubation, the inhibitory activity of bumetanide and furosemide (as positive controls) and the new compounds by monitoring fluorescence upon application of thallium (to mimic K) and subsequently NaCl were tested. When entering cells by NKCC2 (activated by the presence of Cl), thallium binds the fluorescent dye and increases fluorescence. […] A decreased fluorescence in the mock-transfected cells treated with bumetanide and furosemide was observed. […] This latter result was used to normalize the fluorescence measurements obtained with the assay. In particular, the ΔF/F0 value of the mock-transfected cells (both control and treated) was subtracted from the respective ΔF/F0 value of the cells transfected with the Cl transporters. With this assay, the novel chemical entities were tested for their ability to block NKCC2 (Results in Table 2).
The arrow indicates the addition of thallium (final concentration 2 mM) and NaCl stimulus (135 mM) used to initiate the flux assay. b) Quantification of the effect of bumetanide, furosemide and 3 example compounds (3.8, 3.13, 3.17) in the thallium-based assay on NKCC2-transfected HEK293 cells. Data represents mean±sem from 5 independent experiments, and they are represented as % of the controls. *P<0.05, **P<0.01, ***P<0.001 Kruskal-Wallis Anova (Dunn's Post hoc Test); ###P<0.001 two-tailed unpaired Student t-test.

Where [3] appears, read: 10 μM, NKCC2-transfected HEK293, Table 2.

Consider `CCCCCCNc1ccc(C(=O)O)cc1S(=O)(=O)NC` [Compound 3.7, 4-(hexylamino)-3-(methylsulfamoyl)benzoic acid], for which the “NKCC1 Inhibition % 10 μM Neurons Calcium kinetic assay” value in assay [1] (Table 1) and in assay [1] (Table 2) was 7% in each case. Also, the inhibition (commonly how much of the control response was suppressed) at 10 µM in assay [2] (setting [3]) came to 8%.
As for `CCCCCCCCNc1ccc(C(=O)O)cc1S(=O)(=O)NC` [Compound 3.8, 3-(methylsulfamoyl)-4-(octylamino)benzoic acid], the “NKCC1 Inhibition % 10 μM Neurons Calcium kinetic assay” value in assay [1] (Table 1) and in assay [1] (Table 2) was 20% throughout. In assay [2] (setting [3]), this compound showed an inhibition at 10 µM of 0%.
Turning to `CNS(=O)(=O)c1cc(C(=O)O)ccc1NCCC(C)(C)C` [Compound 3.9, 4-(3,3-dimethylbutylamino)-3-(methylsulfamoyl)benzoic acid], the “NKCC1 Inhibition % 10 μM Neurons Calcium kinetic assay” value in assay [1] (Table 1) and in assay [1] (Table 2) was 14% throughout. In assay [2] (setting [3]), the inhibition at 10 µM was 12%.
In the case of `CCCCNc1ccc(C(=O)O)cc1S(=O)(=O)N(C)C` [Compound 3.11, 4-(butylamino)-3-(dimethylsulfamoyl)benzoic acid], the “NKCC1 Inhibition % 10 μM Neurons Calcium kinetic assay” value in assay [1] (Table 1) and in assay [1] (Table 2) was 8% throughout. The same compound gave an inhibition at 10 µM in assay [2] (setting [3]) of 0%.
For `CCCCCCNc1ccc(C(=O)O)cc1S(=O)(=O)N(C)C` [Compound 3.12, 3-(dimethylsulfamoyl)-4-(hexylamino)benzoic acid], the “NKCC1 Inhibition % 10 μM Neurons Calcium kinetic assay” value in assay [1] (Table 1) and in assay [1] (Table 2) was 13% throughout. The compound also gave an inhibition at 10 µM in assay [2] (setting [3]) of 29%.
Turning to `CCCCCCCCNc1ccc(C(=O)O)cc1S(=O)(=O)N(C)C` [Compound 3.13, 3-(dimethylsulfamoyl)-4-(octylamino)benzoic acid], the “NKCC1 Inhibition % 10 μM Neurons Calcium kinetic assay” value in assay [1] (Table 1) and in assay [1] (Table 2) was 45% each time. Further, 10 µM produced 0% inhibition in assay [2] (setting [3]).
Turning to `CN(C)S(=O)(=O)c1cc(C(=O)O)ccc1NCCC(C)(C)C` [Compound 3.14, 4-(3,3-dimethylbutylamino)-3-(dimethylsulfamoyl)benzoic acid], the “NKCC1 Inhibition % 10 μM Neurons Calcium kinetic assay” value in assay [1] (Table 1) and in assay [1] (Table 2) was 11% each time. Moreover, the inhibition at 10 µM in assay [2] (setting [3]) was 0%.
As for `CN(C)S(=O)(=O)c1cc(C(=O)O)ccc1NCCCCCCCC(F)(F)F` [Compound 3.17, 3-(dimethylsulfamoyl)-4-(8,8,8-trifluorooctylamino) benzoic acid], the “NKCC1 Inhibition % 10 μM Neurons Calcium kinetic assay” value in assay [1] (Table 1) and in assay [1] (Table 2) was 46% in each case. In assay [2] (setting [3]), this compound showed an inhibition at 10 µM of 0%. Further, in assay [2] (among compounds of the invention), the NKCC1/NKCC2 selectivity result is recorded as “highest”.
For the compound Furosemide [reference compound], the “NKCC1 Inhibition % 10 μM Neurons Calcium kinetic assay” value in assay [1] (Table 1) and in assay [1] (Table 2) was 36% throughout. The “fluorescence increase upon GABA application compared with vehicle (DMSO)-treated controls” value in assay [1] (GABA 100 μM, normalized to KCl) is recorded as “significantly reduced”. The “NKCC2 Inhibition % 10 μM Thallium Assay” value in assay [2] (setting [3]) is listed as 0%.
